Results on 1 molecule are retold here after US20190381171A1, “CO-USE OF ANTI-BCMA ANTIBODY AND ANTIBODY-COUPLED T CELL RECEPTOR (ACTR) IN CANCER THERAPY AND B CELL DISORDERS” (UNUM THERAPEUTICS INC., priority 2017, published 2019).

For one test, the system named is RPMI-8226 target cells. In words: ACTR T-cell proliferation (live CD3+ T cell count, flow cytometry, 7 days). In kind it is cell-based, human. Conditions: ACTR variant SEQ ID NO: 1, E:T 1:1, hSG16.17 SEA 1 μg/mL, absence or presence of lenalidomide 1 μM, 7 day. Here is the method:
(§1) T-cells expressing ACTR variant SEQ ID NO: 1 (effector; E) and target cells (target; T) were incubated at a 1:1, effector-to-target ratio (30,000 T cells; 30,000 target cells) with increasing concentrations of humanized afucosylated (SEA) BCMA antibody in a 200-μL reaction volume in RPMI 1640 media supplemented with 10% fetal bovine serum and 25 U/mL IL2. Reactions were incubated in a CO2 (5%) incubator at 37 degrees C. for 7 days. The number of live CD3+ T-cells were determined at day 1 and day 7 and compared to the input number of T-cells (dotted line). Briefly, at day 1 and day 7, cells were washed twice in staining buffer before being stained with a Live/Dead eFluor-780 dye for 30 min at 4 degrees C. […] After staining, cells were washed twice again with staining buffer and staining was subsequently detected via flow cytometry. […]
Mock or ACTR T cells (effector; E) and target cells (target; T) were incubated at a 1:1, effector-to-target cell ratio in the presence and absence of the anti-BCMA antibody, hSG16.17 SEA (1 μg/mL). […] The total CD3+ T cell count was determined by flow cytometry after a 7 day incubation in a CO2 (5%) incubator. […] After staining, cells were washed twice with staining buffer and detected via flow cytometry. […]

For a further test, the system named is NCI-H929 target cells. The test is described as above. In kind it is cell-based, human. Conditions: ACTR variant SEQ ID NO: 1, E:T 1:1, hSG16.17 SEA 1 μg/mL, absence or presence of lenalidomide 1 μM, 7 day. Here is the method: as §1
Mock T cells or ACTR T cells (effector; E) and target cells (target; T) were incubated at a 1:1, effector-to-target cell ratio (30,000 target cells) with increasing concentration of humanized afucosylated anti-BCMA antibody (hSG16.17SEA) in a 200-μL reaction volume in RPMI 1640 media supplemented with 10% fetal bovine serum. […] The counts of live CD3+ T cells were determined at day 7. […] After staining, cells were washed twice again with staining buffer and staining was subsequently detected via flow cytometry. […]

As to `Nc1cccc2c1CN(C1CCC(=O)NC1=O)C2=O` (centres unmarked) [Lenalidomide, lenalidomide, reference compound], the “CD3+ T cell count” value with RPMI-8226 target cells and with NCI-H929 target cells was “further enhanced the proliferation” throughout.
